Results published in PubChem BioAssay (NCI).
“And” between values parts separate entries of the source, which are not always exact repeats. Equal entries are not always repeated.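 In this assay, cells in 96-well plates receive the compound at five concentrations for 48 hours. Endpoints are linearly interpolated between the surrounding concentrations. The concentration for 50% growth inhibition is given as GI50. Definition used: TGI = concentration required for complete inhibition of growth.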

Experiments:
Test in all cases: NCI tumour cell line growth inhibition, 48 h
LXFL 529 NSCLC = system: LXFL 529 NSCLC
XF 498 CNS = system: XF 498 CNS
HOP-18 NSCLC = system: HOP-18 NSCLC
KM20L2 colon = system: KM20L2 colon
MDA-N = system: MDA-N
P388/ADR leukemia = system: P388/ADR leukemia
P388 leukemia = system: P388 leukemia
SN12K1 renal = system: SN12K1 renal
DMS 273 small cell lung = system: DMS 273 small cell lung
DMS 114 small cell lung = system: DMS 114 small cell lung
RXF-631 renal = system: RXF-631 renal

C1=Nc2ccccc2Cn2nncc21 was tested, and the TGI (LXFL 529 NSCLC) was > 100 µM, the TGI (XF 498 CNS) was > 100 µM and the TGI (HOP-18 NSCLC) was > 100 µM. The TGI (KM20L2 colon) was > 100 µM.
In the case of CC(C)(C)CNCCCNc1ccc(Cl)cc1, the TGI (MDA-N) is reported as > 100 µM.
With CC(C)=CC1C(COC(=O)c2ccccc2Cl)C1(C)C (stereo not given) the TGI (MDA-N) was > 100 µM.
O=[N+]([O-])c1ccc(NNN=Nc2ccc(-c3nc4ccccc4[nH]3)cc2)c([N+](=O)[O-])c1 was tested, and the TGI (MDA-N) was > 100 µM.
Compound CCN(CC)CCCC(C)Nc1c2ccc(Cl)cc2nc2cc(Cl)ccc12 (stereo not given) has a TGI (P388/ADR leukemia) of 3.48 µM, a TGI (P388 leukemia) of 3.58 µM and a TGI (XF 498 CNS) of 9.64 µM. For the same compound, the TGI (SN12K1 renal) was 8.47 µM, the TGI (HOP-18 NSCLC) was 18.1 µM and the TGI (DMS 273 small cell lung) was 10.3 µM. It also gave a TGI (DMS 114 small cell lung) of 16.6 µM and a TGI (KM20L2 colon) of 11.6 µM.
CC(C)NC(=O)OCc1nnn2c1CCC2 was tested, and the TGI (LXFL 529 NSCLC) was > 100 µM, the TGI (XF 498 CNS) was > 100 µM and the TGI (KM20L2 colon) was > 100 µM.
Compound COC1=CC(=O)c2c(c(COC(C)=O)cn2C)C1=O has a TGI (MDA-N) of 0.253 µM.
With CC[C@@]1(O)C(=O)OCc2c1cc1n(c2=O)Cc2cc3c(CN(C)C)c(O)ccc3nc2-1 the TGI (P388/ADR leukemia) was 2.77 µM, the TGI (P388 leukemia) was 2.66 µM and the GI50 (XF 498 CNS) was 0.585 µM. It also gave a TGI (RXF-631 renal) of 30.1 µM, a TGI (SN12K1 renal) of 1.19 µM and a GI50 (HOP-18 NSCLC) of 0.132 µM. The TGI (HOP-18 NSCLC) was 89 µM, the GI50 (DMS 273 small cell lung) was 0.0372 µM and the TGI (DMS 273 small cell lung) was 1.09 µM and 0.609 µM. The GI50 (MDA-N) was 0.0241 µM and 0.119 µM and 0.0221 µM, the TGI (MDA-N) was 0.777 µM and 5.2 µM and 0.902 µM and the GI50 (DMS 114 small cell lung) was < 0.0351 µM. For the same compound, the TGI (DMS 114 small cell lung) was 0.691 µM and 0.162 µM, the GI50 (KM20L2 colon) was 2.22 µM and the TGI (KM20L2 colon) was 8.27 µM.
For CC1(CO)C(O)CCC2(C)C1C(O)CC1CC3CC12CCC3(O)CO (stereo not given), the TGI (P388/ADR leukemia) was > 225 µM, the TGI (P388 leukemia) was > 22.5 µM and the TGI (XF 498 CNS) was > 225 µM. The TGI (SN12K1 renal) was > 225 µM, the TGI (HOP-18 NSCLC) was > 225 µM and the TGI (DMS 273 small cell lung) was > 199 µM. For the same compound, the TGI (DMS 114 small cell lung) was > 225 µM and the TGI (KM20L2 colon) was > 225 µM.
For CC(C(=O)NCCNC(=O)CCCC(=O)N(C)O)C(=O)NCCNC(=O)CCCC(=O)N(C)O, the TGI (MDA-N) was > 100 µM.
In the case of COc1cc(/C=N/N=C(\N)NO)ccc1O, the TGI (LXFL 529 NSCLC) is reported as > 100 µM and the TGI (DMS 114 small cell lung) is reported as > 100 µM.
For CN(CC(=O)O)CC(=O)O, the TGI (MDA-N) was > 100 µM.
OCC(O)C(O)C(O)C(O)CNCCO/N=C1/C(c2c(O)[nH]c3ccccc23)=Nc2ccccc21 (stereo not given) was tested, and the TGI (MDA-N) was 19.4 µM.
In the case of Fc1cc(C2=Nn3c(CNc4ccc(Cl)cc4)nnc3S/C2=C\c2ccc(-c3ccc(Cl)cc3)o2)c(Cl)cc1Cl, the TGI (MDA-N) is reported as > 100 µM.
In the case of O=c1ccc2c(Cl)cccc2o1, the TGI (MDA-N) is reported as > 100 µM.
Compound CSC1=C(SC)C(=O)c2cn(C)c(=O)cc2C1=O has a TGI (MDA-N) of 3.06 µM.
With OC(c1ccccc1)C1CC2C=CC1C2 (stereo not given) the TGI (LXFL 529 NSCLC) was > 100 µM, the TGI (XF 498 CNS) was > 100 µM and the TGI (RXF-631 renal) was > 100 µM. The TGI (DMS 273 small cell lung) was > 100 µM and the TGI (DMS 114 small cell lung) was > 100 µM.
